Experimental data from patent publication US6200962A, “Thionophosphate derivatives, process for their preparation and pharmaceutical compositions containing them” (priority 1994, dated 2001).

Tests used:
[1] = system: Human neutrophils (PMNs); assay: Chemiluminescence of PMNs activated by cationized streptococci; type: cell-based
Method: Human neutrophils (PMNs) were isolated from freshly drawn human blood according to already published procedures [Ginsburg et al., ibid.].
Chemiluminescence was measured in activated PMNs at 37° C. in a LUMAC/3M BIOCONTER M2010 connected to a linear recorder. PMNs (3*10^5 -2*10^6 /ml) were pipetted into plastic cuvettes, containing 1 ml HBSS, luminol (5*10^-5 M) and washed Streptococci 20 μl/ml (ten milliliters of a saline-washed suspension of group A Streptococci type 3 strain C203S of an optical density of 5.0 at 550 nm that was treated for 15 min at 37° C. with 100 μg/ml of poly L-histidine (PHSTD)HCL mol wt 23,000). The cationized suspension was then washed in normal saline and resuspended to the original volume. The cuvettes were mixed over a mechanical vortex and the chemiluminescence was immediately monitored until the peak CL was reached.
Modulation of chemiluminescence response was achieved by employing AMTP (compound B) molecules in various concentrations.
Two experiments were done. In the first experiment with 3-4*10^5 cells/ml, a concentration of less than 1 mM of compound B was required to quench 90% of light production. Control 1 in FIG. 13 represents neutrophils treated with streptococcus alone (14,000-17,000 light units at the peak), Spontaneous light production measurements were 1,400-2,000 light CPM. In the second experiment Control 2 represents 1.5*10^6 cells per 1 ml HBSS activation of the cells by cationized streptococcus produced between 50,000-63,000 light units at the peak. 8 mM of compound B reduced the light measurements to the base level of 3500 light units.

[2] = Reaction with hydrogen peroxide followed by 31P NMR
Method: (§1) ROS reaction with AMTP were recorded by ^31 P NMR spectra. ^31 P spectra were referenced to 1% H3 PO4 in D2 O and used as an external standard.
Two products of oxidation were observed by ^31 P NMR (FIG. 4). One product at 9.106 ppm and the other at -3.556 ppm. The second product indicated another fragmentation in the molecule.
Different reaction rates were recorded by NMR kinetics between hydrogen peroxide and compound B either in a more hydrophilic environment and in a more hydrophobic one (different mixtures of 1,4-dioxane and water) with dielectric constants of 72.63 and 9.58 respectively.

[3] = Scavenging of sodium hypochlorite followed by 31P NMR; conditions: 5 mM in water, 6 mM NaOCl, immediately after exposure
Method: as §1
Compound B (5 mM in water) was introduced into 6 mM sodium hypochlorite.

[4] = Hydroxyl radical chemiluminescence method (H2O2, NTA-Fe2+, HRP); conditions: increasing concentrations
Method: Chemiluminescence (CL) was measured in mixtures of H2 O2, NTA-Fe^2+ and HRP (Horseradish peroxidase) systems in a LUMAC/3M BIOCONTER M2010 connected to a linear recorder as described [Ginsburg, I. et al. (1993) Inflammation 17:227-243]. The scavenging of hydroxyl radicals was done by various concentrations of AMTP (compound C dissolved in reaction buffer).
where A is the absorbance in the presence of a scavenger S (AMTPs) at a concentration [S] and A0 is the absorbance in the absence of a scavenger KDR =3.1*10^9 (reaction constant between deoxyribose and OH. radical) [Ebert, M., et al. (1965) Pulse Radiolysis, Academic Press, London] and [DR]=18 mM. […] Considering the fast reaction between H2 O2 and Fe^2+ --NTA and the slow reaction rate between AMTP and hydrogen peroxide as monitored in the ^31 P experiments (FIG. 5), the light decay may be exclusively attributed to hydroxyl radical scavenging.

[5] = oil(mineral)/water and octanol/water partitioning; type: physicochemical
Description: The basic chemical structure of the compounds of the invention includes the group --P--N=S, which resembles the thiourea --N--C=S core, in which the central carbon atom has been replaced by a phosphorus atom, to give --N--P=S, which is the characteristic functional group the novel compounds of the invention. This functional group is based on a primary amido thionophosphate (AMTP) chemical bond. The specific compounds shown in FIG. 1, which are only representative of the numerous possible compounds, differ in their oil(mineral) /water and octanol/water partitioning: […]

[6] = system: Human skin fibroblasts; assay: Chromium release from fibroblasts, killing by streptolysin S and glucose oxidase; type: cell-based
Method: Human skin fibroblasts were kindly supplied by the Department for Human Genetics at Hadassa Hospital in Jerusalem. The cells were grown in D-MEM medium supplemented with glutamine, penicillin, and streptomycin and 10% fetal calf serum [Ginsburg, I. et al. (1992) Inflammation 16:519-538]. Radiolabeled cell monolayers were prepared by the addition of 10 μCi/ml of [^51 Cr]NaCrO4 (New England Nuclear) to […] of trypsinized cells grown in 75-ml tissue culture bottles. The cells were then dispensed into 24-well tissue culture plates (Nunc, Roskilde, Denmark) and grown to confluency in a CO2 incubator.
Hydrogen peroxide flux was generated by the addition of glucose oxidase (0.5 units/ml) to the tissue culture media. Streptolysin S (SLS) of Croup A Streptococci (17 hemolytic units/ml) was employed as a membrane damaging agent.
Culture monolayers were treated for 1 h with the agents listed above. The cultures were monitored periodically for changes in cell morphology. To assess cytotoxicity, the supernatant fluids were removed and centrifuged at 2000 rpm for 2 min. The solubilized radioactivity was then determined in a Contron gamma counter. The total radioactivity associated with untreated controls was solubilized by the addition of 1 ml of 1% Triton X-100. (AMTPs influence on SLS hemolytic activity and on glucose oxidase activity was also tested. No influences were observed).
Fibroblasts in culture were exposed to a synergistic killing mechanism (streptolysin S in combination with an oxidant glucose oxidase) in a D-MEM culture medium that contained 1 mg/ml of glucose (about 0.5-1 mM of H2 O2 was produced after 1 hour of incubation at 37° C.). This system caused about 60% chromium released within an hour. […] The positive controls were DMTU and catalase.

SMILES: CCOP(=S)(NCCO)OCC [Compound B, 2-hydroxyamido diethyithionophosphate]
- light production at 8 mM ([1]; 8 mM, 1.5*10^6 cells/ml, control 50,000-63,000): 3500 light units
- IC90 ([1]; Homo sapiens, Neutrophil, 3-4*10^5 cells/ml, read-out: concentration required to quench 90% of light production): < 1000 µM
- reduction of light emission ([1]; various concentrations): dose dependent reduction of light emission
- decomposition by H2O2 ([2]; 5 mM compound, 100 mM H2O2): decomposed by H2 O2
- reaction rate with hydrogen peroxide vs dielectric constant ([2]; 1,4-dioxane/water mixtures, dielectric constants 72.63 and 9.58): much faster in high dielectric constants
- oxidation by sodium hypochlorite [3]: complete oxidation of the sulfur group
- decay of light (hydroxyl radical scavenging) [4]: Dose dependent decay of light
- logP ([5]; octanol/water, read-out: P (octanol/water) (converted)): 0.508
- P (oil/water) ([5]; oil(mineral)/water): 0.25
- prevention of cell damage, comparative [6]: much more efficient than compound C
- toxic effects on the cell ([6]; concentrations of up to 20 mM, compound alone): did not show any toxic effects
- protection against cell killing ([6]; concentrations up to 10 mM, 60 min): 50-60%
